Data from patent US8895069B2, “Drug delivery system using hyaluronic acid-peptide conjugate micelle” (Postech Academy-Industry Foundation, priority 2011, dated 2014).
Ends that are not written are not given here.

Tests used:
[1] = tested on: vascular hyperpermeability due to diabetic retinopathy; assay: Vascular hyperpermeability due to diabetic retinopathy, streptozotocin, dextran-FITC fluorescence (Experimental Example 10); assay type: in vivo, Sprague Dawley (SD) male rats; conditions: hyaluronic acid test group = 100%; intravitreal 10 μL, peptide 5 mg/ml; four weeks after streptozotocin
Source text: Four groups consisted of a hyaluronic acid test group, an anti-Flt1 peptide (GGNQWFI) (SEQ ID NO: 3) test group, a test group of the hyaluronic acid-peptide conjugate with a lower peptide content (with 20 peptides being conjugated per one molecule of HA-TBA) as prepared from Preparation Example 3 (HA-GGNQWFI), and a test group of the hyaluronic acid-peptide conjugate with a higher peptide content (with 28 peptides being conjugated per one molecule of HA-TBA) as prepared from Preparation Example 3(HA-GGNQWFI(2)). The anti-Flt1 peptide sample and the hyaluronic acid-peptide conjugate samples were made to have an identical peptide concentration of 5 mg/ml. First, each rat was injected intraperitonially with 60 mg/kg of streptozotocin dissolved in 10 mM citrate buffer at pH 4.5 in order for diabetes to be induced. In three days after the injection of streptozotocin, the rat was determined to develop diabetes when its serum concentration of glucose was at least 300 mg/dL. In a week after the injection of streptozotocin, 10 μL of each sample solution was injected into the vitroeus body. In four weeks after the injection of streptozotocin, the effect of inhibiting vascular hyperpermeability due to diabetic retinopathy was determined by the fluorescence microscopic analysis with using dextran-FITC (MW=10,000) in the same manner as set forth in Experimental Example 7-1.

[2] = Pharmacokinetics in the vitreous body after intravitreal injection; assay type: in vivo, Sprague Dawley (SD) male rats
Experimental: Three groups consisted of a hyaluronic acid (HA) test group, an anti-Flt1 peptide (GGNQWFI) (SEQ ID NO: 3) test group, and a test group of the hyaluronic acid-peptide conjugate with a lower peptide content as prepared from Preparation Example 3 (HA-GGNQWFI). The anti-Flt1 peptide sample and the hyaluronic acid-peptide conjugate sample were made to have an identical peptide concentration of 5 mg/ml. 10 μL of each sample solution was injected into the vitroeus body, which was sampled in 6 hours, 1 day, 3 days, 7 days, 10 days, and 14 days and stored at −20° C. until analysis. The concentration of the anti-Flt1 peptide in the vitreous body was measured with fluorescence analysis. Specifically, the vitreous body was disintegrated by using 200 μL of RIPA buffer, and then subjected to centrifugation under 14,000 g at 4° C. for 10 minutes to provide a supernatant solution. By using a spectrofluorometer (Cary Eclipse Fluorescence Spectrophotometer, Varian, Australia), the photoluminescence of each sample was measured at an excitation wave length of 280 nm and an emission wavelength of 350 nm. The vitreous body of the SD rat that was not treated at all was used as a blank control.

[3] = tested on: corneal neovascularization; assay: Corneal neovascularization after silver nitrate cauterization (Experimental Example 8); assay type: in vivo, Albino Sprague Dawley male rats; conditions: rat cornea, subconjunctival 20 μL; Avastin 10 mg/ml, peptide and conjugate […] peptide; NV control 90.8±5%
Experimental: All animal tests including this experiment were conducted in compliance with the guidelines of the Catholic University of Korea and the principles of laboratory animal care; NIH publication No. 85-23 revised in 1985.
The rat was put under anesthesia by an intra-peritoneal injection of a mixed solution of 20 mg/kg of ketamine hydrochloride and 2.5 mg/kg of xylazine hydrochloride. […] In 3 days after the cauterization, subconjunctival administration was conducted with 20 μL of each of 4 sample solutions (a normal control group, NV control (neovascularization control: a control group wherein angiogenesis was made to occur and no drug was treated thereon), a solution comprising Avastin (Roche) dissolved in PBS at a concentration of 10 mg/ml, a solution comprising anti-Flt1 peptide (GGNQWFI) (SEQ ID NO: 3) dissolved in PBS at a concentration of 2.5 mg/ml, and a solution comprising the hyaluronic acid-peptide conjugate with a lower peptide concentration obtained from Preparation Example 3 as dissolved in PBS at a concentration of 2.5 mg/ml based on the content of anti-Flt1 peptide). […] The obtained images were subjected to quantitative analysis with Image J program (Ver. 1.38, National Institute of Health, MD).

retinal blood vessel = assay: Electron microscopy of retinal blood vessel in diabetic retinopathy; assay type: in vivo, Sprague Dawley (SD) male rats; conditions: diabetic retinopathy rats
[4] = tested on: retinal and choroidal neovascularization (CNV); assay: Laser-induced retinal and choroidal neovascularization (CNV); assay type: in vivo, Brovin-Norway (BN) male rats; conditions: negative control = 100%; intravitreal 10 μL, peptide concentration 10 mg/ml; 2 weeks after laser; conjugate = higher peptide content
Experimental: Four groups consisted of a negative control group, a hyaluronic acid test group, an anti-Flt1 peptide (GGNQWFI) (SEQ ID NO: 3) test group, a test group of the hyaluronic acid-peptide conjugate with a higher peptide content as prepared from Preparation Example 3 (HA-GGNQWFI(2)). The anti-Flt1 peptide sample and the hyaluronic acid-peptide conjugate sample were made to have an identical peptide concentration of 10 mg/ml. First, the rat was put under anesthesia by being treated with 0.2 mL of a mixed solution (1:1) of 100 mg/ml of ketamine hydrochloride and 20 mg/ml of xylazine hydrochloride. […] The effect of inhibiting retinal and choroidal neovascularization was determined with a fluorescence microscope analysis using dextran-FITC (MW=40,000) after 2 weeks from the laser-induced damage. After being put under anesthesia, the rat was injected with 500 μL of a dextran-FITC solution (25 mg/mL) at its tail vein, and in 5 minutes, the choroid was separated and observed with a fluorescence microscope equipped with a digital camera (Olympus, Tokyo, Japan). The obtained images were analyzed with Image J program (NIH, Bethesda, Md.).

[5] = rat, single intravitreal 10 μL, peptide 5 mg/ml
[6] = male, Sprague Dawley (SD), vitreous body, 50 µg, rat, single intravitreal 10 μL, peptide 5 mg/ml

Substance	average intensity of the fluorescence of retina (dextran-FITC) [1]	Cmax in the vitreous body [2, 5]	Tmax in the vitreous body [2, 5]	time for which the concentration in the vitreous body was maintained above base line [2, 5]	AUC / bioavailability (AUC/dose) in the vitreous body ([2]; same dose, compared with anti-Flt1 peptide)	average ratio of the neovascular area [3]	Cmax [2, 6]	Tmax [2, 6]	structure of the retinal blood vessel (electron microscope) (retinal blood vessel)	average intensity of the fluorescence of CNV lesion [4]
HA-GGNQWFI: hyaluronic acid (MW 100 kDa) conjugated with GGNQWFI, 20 peptides per one molecule of HA-TBA (also: conjugated to hyaluronic acid, about 20 peptides per HA)	58.4±7.8%	1600 ± 600 µg/mL	6 h	at least 14 days	higher AUC than that of the anti-Flt1 peptide	17.4±5.6%				
GGNQWFI [anti-Flt1 peptide, GGNQWFI]	79.0±9.2%			< 10 days		27±5.7%	800 ± 700 µg/mL	24 h	the blood vessel had a rounded shape although the endothelial cell layer was thin	61.4±4.4%
